How the values were obtained:
[1] = molecular target: T1, Recombinant (1-346) HPK1 (h) (Homo sapiens, UniProt Q92918); assay: HPK1 human STE kinase enzymatic radiometric assay; assay type: biochemical; conditions: read-out: HPK1 IC50 nM Range
T1 construct: Recombinant (1-346) HPK1 (h) is incubated with 8 mM MOPS pH 7.0
T1 sequence (Q92918 1-346): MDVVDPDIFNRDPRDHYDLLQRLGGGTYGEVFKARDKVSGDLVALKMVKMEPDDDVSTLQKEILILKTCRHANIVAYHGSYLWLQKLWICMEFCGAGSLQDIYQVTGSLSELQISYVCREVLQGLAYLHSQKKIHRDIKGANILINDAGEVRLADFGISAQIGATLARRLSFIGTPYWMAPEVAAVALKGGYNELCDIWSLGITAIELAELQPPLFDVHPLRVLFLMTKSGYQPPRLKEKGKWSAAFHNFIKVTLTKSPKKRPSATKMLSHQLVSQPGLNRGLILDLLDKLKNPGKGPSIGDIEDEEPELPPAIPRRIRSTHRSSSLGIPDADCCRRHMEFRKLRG
In short: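 Compounds in 3-fold, 9-point serial dilution; kinase (residues 1-346) phosphorylates myelin basic protein (0.33 mg/mL) using [gamma-33P]-ATP at pH 7.0 (MOPS, EDTA, Mg acetate) for 40 min, room temperature. Acid-quenched mixture filtered onto P30 mats; incorporated radioactivity read by scintillation counting.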

[2] = molecular target: Lck (h) (Homo sapiens, UniProt P06239); assay: Lck human STE kinase enzymatic radiometric assay; assay type: biochemical; conditions: read-out: Lck IC50 nM Range
Sequence of Lck (h) (P06239 whole entry): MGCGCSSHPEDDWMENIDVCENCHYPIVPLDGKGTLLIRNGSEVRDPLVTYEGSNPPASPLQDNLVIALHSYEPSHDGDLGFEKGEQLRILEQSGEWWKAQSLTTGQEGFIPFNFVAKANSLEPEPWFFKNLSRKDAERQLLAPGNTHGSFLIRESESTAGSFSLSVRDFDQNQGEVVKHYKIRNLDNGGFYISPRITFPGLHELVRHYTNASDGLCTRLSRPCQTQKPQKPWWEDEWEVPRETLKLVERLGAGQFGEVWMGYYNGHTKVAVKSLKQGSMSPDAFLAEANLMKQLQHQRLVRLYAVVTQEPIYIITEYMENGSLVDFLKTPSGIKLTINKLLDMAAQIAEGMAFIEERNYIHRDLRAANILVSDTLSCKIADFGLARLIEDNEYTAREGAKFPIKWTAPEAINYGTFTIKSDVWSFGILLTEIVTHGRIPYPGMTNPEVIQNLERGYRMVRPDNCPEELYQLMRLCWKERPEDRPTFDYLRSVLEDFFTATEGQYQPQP
Procedure: (b) Lck Human STE Kinase Enzymatic Radiometric Assay
Lck (h) is incubated with 50 mM Tris pH 7.5, 0.1 mM EGTA, 0.1 mM Na3VO4, 250 uM KVEKIGEGTYGVVYK (Cdc2 peptide), 10 mM MgAcetate and [gamma-33P]-ATP (specific activity and concentration as required). The reaction is initiated by the addition of the Mg/ATP mix. After incubation for 40 minutes at room temperature, the reaction is stopped by the addition of phosphoric acid to a concentration of 0.5%, 10 μL of the reaction is then spotted onto a P30 filtermat and washed four times for 4 minutes in 0.425% phosphoric acid and once in methanol prior to drying and scintillation counting. For more details on the kinase assay procedures see: Gao, Y. et. al.; Biochem J., 451 (2): 313-328, 2013.

Compound	IC50 [1]	IC50 [2]
CN1C[C@@H]2C[C@]2(c2ccc(-c3nc(-c4cc5c(cc4F)C(=O)NCC5)c(N)nc3F)cc2)C1 [Example I-5, 6-(3-amino-5-fluoro-6-(4-((1S,5R)-3-methyl-3-azabicyclo[3.1.0]hexan-1-yl)phenyl)pyrazin-2-yl)-7-fluoro-3,4-dihydroisoquinolin-1(2H)-one]	0.1 to 10 nM	> 1000 nM
CC(C)N1CCN(c2ccc(-c3nc(-c4ccc5c(=O)[nH]cnc5c4)c(N)nc3F)cc2)CC1 [Example I-37, 7-(3-amino-5-fluoro-6-(4-(4-isopropylpiperazin-1-yl)phenyl)pyrazin-2-yl)quinazolin-4(3H)-one]	0.1 to 10 nM	> 1000 nM
C[C@@H]1CN(c2ccc(-c3nc(-c4ccc5c(c4)C(F)(F)CNC5=O)c(N)nc3F)cc2CN(C)C)C[C@H](C)O1 [Example I-257, 6-(3-amino-6-(3-((dimethylamino)methyl)-4-((2R,6S)-2,6-dimethylmorpholino)phenyl)-5-fluoropyrazin-2-yl)-4,4-difluoro-3,4-dihydroisoquinolin-1(2H)-one]	0.1 to 10 nM	> 1000 nM
CN(C)Cc1cc(-c2nc(-c3ccc4c(=O)[nH]cc(Cl)c4c3)c(N)nc2F)ccc1C1CCOCC1 [Example I-154, 6-(3-amino-6-(3-((dimethylamino)methyl)-4-(tetrahydro-2H-pyran-4-yl)phenyl)-5-fluoropyrazin-2-yl)-4-chloroisoquinolin-1(2H)-one]	0.1 to 10 nM	> 1000 nM
Cc1nc2cc(-c3nc(-c4ccc(C5CCOCC5)c(CN(C)C)c4)c(F)nc3N)ccc2c(=O)[nH]1 [Example I-92, 7-(3-amino-6-(3-((dimethylamino)methyl)-4-(tetrahydro-2H-pyran-4-yl)phenyl)-5-fluoropyrazin-2-yl)-2-methylquinazolin-4(3H)-one]	0.1 to 10 nM	> 1000 nM
Cc1c[nH]c(=O)c2ccc(-c3nc(-c4ccc(N5CCN(CC6CC6)CC5)cc4)c(F)nc3N)cc12 [Example I-72, 6-(3-amino-6-(4-(4-(cyclopropylmethyl)piperazin-1-yl)phenyl)-5-fluoropyrazin-2-yl)-4-methylisoquinolin-1(2H)-one]	0.1 to 10 nM	> 1000 nM
Nc1nc(F)c(-c2ccc(N3CCN(C4COC4)CC3)cc2)nc1-c1cc(F)c2c(c1)CCNC2=O [Example I-44, 6-(3-amino-5-fluoro-6-(4-(4-(oxetan-3-yl)piperazin-1-yl)phenyl)pyrazin-2-yl)-8-fluoro-3,4-dihydroisoquinolin-1(2H)-one]	0.1 to 10 nM	> 1000 nM
Nc1nc(F)c(-c2ccc(N3CCN(CCC4CC4)CC3)cc2)nc1-c1cc(F)c2c(c1)CCNC2=O [Example I-26, 6-(3-amino-6-(4-(4-(2-cyclopropylethyl)piperazin-1-yl)phenyl)-5-fluoropyrazin-2-yl)-8-fluoro-3,4-dihydroisoquinolin-1(2H)-one]	0.1 to 10 nM	> 1000 nM
CN1C[C@H]2C[C@@]2(c2ccc(-c3nc(-c4cc5c(cc4F)C(=O)NCC5)c(N)nc3F)cc2)C1 [Example I-3, 6-(3-amino-5-fluoro-6-(4-((1R,5S)-3-methyl-3-azabicyclo[3.1.0]hexan-1-yl)phenyl)pyrazin-2-yl)-7-fluoro-3,4-dihydroisoquinolin-1(2H)-one]	0.1 to 10 nM	> 1000 nM
CC(C)S(=O)(=O)c1ccc(-c2nc(-c3ccc4c(=O)[nH]cc(F)c4c3)c(N)nc2F)cc1CN(C)C [Example I-293, 6-(3-amino-6-(3-((dimethylamino)methyl)-4-(isopropylsulfonyl)phenyl)-5-fluoropyrazin-2-yl)-4-fluoroisoquinolin-1(2H)-one]	11 to 100 nM	> 1000 nM
CN(C)Cc1cc(-c2nc(-c3ccc4c(c3)C3(CC3)CNC4=O)c(N)nc2F)ccc1C1CCOCC1 [Example I-110, 6′-(3-amino-6-(3-((dimethylamino)methyl)-4-(tetrahydro-2H-pyran-4-yl)phenyl)-5-fluoropyrazin-2-yl)-2′,3′-dihydro-1′H-spiro[cyclopropane-1,4′-isoquinolin]-1′-one]	0.1 to 10 nM	101 to 1000 nM
Nc1nc(F)c(-c2ccc(N3CCOCC3)c(CN3CCC3)c2)nc1-c1cc(F)c2c(c1)CCNC2=O [Example I-146, 6-(3-amino-6-(3-(azetidin-1-ylmethyl)-4-morpholinophenyl)-5-fluoropyrazin-2-yl)-8-fluoro-3,4-dihydroisoquinolin-1(2H)-one]	0.1 to 10 nM	> 1000 nM

Further lines, results first:

IC50 [1]	IC50 [2]	Compound
0.1 to 10 nM	101 to 1000 nM	Nc1nc(F)c(-c2ccc(N3CCN(CC4CC4)CC3)cc2)nc1-c1cc(F)c2c(=O)[nH]ccc2c1 [Example I-24, 6-(3-amino-6-(4-(4-(cyclopropylmethyl)piperazin-1-yl)phenyl)-5-fluoropyrazin-2-yl)-8-fluoroisoquinolin-1(2H)-one]
11 to 100 nM	> 1000 nM	CC(C)N1CCN(c2ccc(-c3nc(-c4ccc5c(=O)[nH]ncc5c4)c(N)nc3F)cc2)CC1 [Example I-38, 6-(3-amino-5-fluoro-6-(4-(4-isopropylpiperazin-1-yl)phenyl)pyrazin-2-yl)phthalazin-1(2H)-one]
0.1 to 10 nM	> 1000 nM	CN(C)Cc1cc(-c2nc(-c3cc4c(F)c[nH]c(=O)c4cc3F)c(N)nc2F)ccc1N1CCOCC1 [Example I-142, 6-(3-amino-6-(3-((dimethylamino)methyl)-4-morpholinophenyl)-5-fluoropyrazin-2-yl)-4,7-difluoroisoquinolin-1(2H)-one]
0.1 to 10 nM	> 1000 nM	CNCC1Cc2cc(-c3nc(-c4ccc(N5CCN(C(C)C)CC5)cc4)c(F)nc3N)ccc2C(=O)N1 (stereo not drawn) [Example I-11, 6-(3-amino-5-fluoro-6-(4-(4-isopropylpiperazin-1-yl)phenyl)pyrazin-2-yl)-3-((methylamino)methyl)-3,4-dihydroisoquinolin-1(2H)-one]
0.1 to 10 nM	> 1000 nM	Nc1nc(F)c(-c2ccc(C3CCOCC3)c([C@@H]3CCCN3)c2)nc1-c1ccc2c(c1)CCNC2=O [Example I-18, (S)-6-(3-amino-5-fluoro-6-(3-(pyrrolidin-2-yl)-4-(tetrahydro-2H-pyran-4-yl)phenyl)pyrazin-2-yl)-3,4-dihydroisoquinolin-1(2H)-one]
0.1 to 10 nM	> 1000 nM	CC(C)N1CCN(c2ccc(-c3nc(-c4cc(F)c5c(=O)[nH]cc(F)c5c4)c(N)nc3F)cc2)CC1 [Example I-85, 6-(3-amino-5-fluoro-6-(4-(4-isopropylpiperazin-1-yl)phenyl)pyrazin-2-yl)-4,8-difluoroisoquinolin-1(2H)-one]
0.1 to 10 nM	101 to 1000 nM	CC(C)N1CCN(c2ccc(-c3nc(-c4cc5cc[nH]c(=O)c5cc4F)c(N)nc3F)cc2)CC1 [Example I-22, 6-(3-amino-5-fluoro-6-(4-(4-isopropylpiperazin-1-yl)phenyl)pyrazin-2-yl)-7-fluoroisoquinolin-1(2H)-one]
0.1 to 10 nM	101 to 1000 nM	CC(C1CC1)N1CCN(c2ccc(-c3nc(-c4cc(F)c5c(c4)CCNC5=O)c(N)nc3F)cc2)CC1 (single isomer, unassigned) [Example I-29, 6-(3-amino-6-(4-(4-(1-cyclopropylethyl)piperazin-1-yl)phenyl)-5-fluoropyrazin-2-yl)-8-fluoro-3,4-dihydroisoquinolin-1(2H)-one]
0.1 to 10 nM	> 1000 nM	Nc1nc(F)c(-c2ccc(C3CCOCC3)c(CN3CCC3)c2)nc1-c1cc2c(cc1F)C(=O)NCC2 [Example I-170, 6-(3-amino-6-(3-(azetidin-1-ylmethyl)-4-(tetrahydro-2H-pyran-4-yl)phenyl)-5-fluoropyrazin-2-yl)-7-fluoro-3,4-dihydroisoquinolin-1(2H)-one]
0.1 to 10 nM	> 1000 nM	CN(C)Cc1cc(-c2nc(-c3ccc4c(c3)CCNC4=O)c(N)nc2F)ccc1C1CCOCC1 [Example I-59, 6-(3-amino-6-(3-((dimethylamino)methyl)-4-(tetrahydro-2H-pyran-4-yl)phenyl)-5-fluoropyrazin-2-yl)-3,4-dihydroisoquinolin-1(2H)-one]
0.1 to 10 nM	> 1000 nM	Cc1cc2cc(-c3nc(-c4ccc(C5CCOCC5)c(CN(C)C)c4)c(F)nc3N)cc(F)c2c(=O)[nH]1 [Example I-100, 6-(3-amino-6-(3-((dimethylamino)methyl)-4-(tetrahydro-2H-pyran-4-yl)phenyl)-5-fluoropyrazin-2-yl)-8-fluoro-3-methylisoquinolin-1(2H)-one]
0.1 to 10 nM	> 1000 nM	CC(C)N1CCN(c2ccc(-c3nc(-c4ccc5c(c4)CCNC5=O)c(N)nc3F)cc2)CC1 [Example I-1, 6-(3-amino-5-fluoro-6-(4-(4-isopropylpiperazin-1-yl)phenyl)pyrazin-2-yl)-3,4-dihydroisoquinolin-1(2H)-one]

— US20240425479A1, “HALO-SUBSTITUTED AMINO AZA-HETEROARYL COMPOUNDS AS INHIBITORS OF THE HAEMATOPOIETIC PROGENITOR KINASE 1 (HPK1)” (priority 2021, published 2024)
